Structures can show the parent of a compound that is named as a salt.
System: women with severe chronic bladder pain
Test: Treatment of pelvic pain of bladder origin with dextroamphetamine sulfate (two case reports)
Type: in vivo, human
Details: for effect of earlier conventional therapy on bladder pain (patient's claim): before dextroamphetamine sulfate
Text: Treatment of Pelvic Pain of Bladder Origin with Dextroamphetamine Sulfate.
Two women with severe chronic bladder pain unresponsive to conventional therapy were offered a novel therapy with dextroamphetamine sulfate. In the first patient, the bladder pain started […] in an intermittent manner for six months and then it became daily. The pain was described as a constant feeling of urgency and pain from the urethra to the bladder on walking. They scored an 18 on the pelvic pain and urging/frequency PST. A laparoscopy […] found minimal endometriosis. A cystoscopy was negative as were repeated urine cultures. […] They failed a water load test excreting only 1000 mL urine after standing 4 hours after drinking 1500 mL.
In the second patient, the pain also began intermittently for six months […]. The pain then began occurring daily and was worse with intercourse and for three days premenstrually. The pain was described as a constant feeling of pressure in the bladder with intense pain after urination. Urine cultures were negative and empirical antibiotics provided no relief. They also failed the water load test.
Dextroamphetamine sulfate spansules (10 mg) were given twice daily to the first patient and once daily to the second patient.

[1] = first patient, spansules 10 mg twice daily
[2] = second patient, spansules 10 mg once daily

| Structure (SMILES) | symptom status after being weaned off the drug (first patient, after 1.5 years on medication) | bladder pain response [1] | time pain free while remaining on medication [1] [years] | symptoms on interruption and resumption of medication (second patient, forgot their pills on a short trip) | bladder pain response [2] | time remaining pain free [2] | effect of earlier conventional therapy on bladder pain (patient's claim) (first patient) |
| --- | --- | --- | --- | --- | --- | --- | --- |
| C[C@H](N)Cc1ccccc1 [Dextroamphetamine sulfate, dextroamphetamine sulfate] | remained symptom free for six months | pain completely disappeared within two days | 1.5 | symptoms returned immediately but then disappeared immediately upon resumption of medication | pain decreased immediately and gradually improved daily for one week when it completely disappeared | remained pain free for four months |  |
| CCN(CC)CC#CCOC(=O)C(O)(c1ccccc1)C1CCCCC1 (centres unmarked) [ditropan] |  |  |  |  |  |  | made it worse |
| CC(C)(C)NC(=O)[C@H]1CC[C@H]2[C@@H]3CC[C@H]4NC(=O)C=C[C@]4(C)[C@H]3CC[C@]12C [finasteride] |  |  |  |  |  |  | made it worse |
